Data: US6515018B1, “Synergistic compositions for lycopene and Vitamin E for the prevention of LDL oxidation” (Lycored Natural Products Industries Ltd., priority 1997, dated 2003)

How the values were obtained:
Format in all cases: biochemical, human
LDL [1] = experiment: CuSO4-induced LDL oxidation measured by lipid peroxides formation; conditions: CuSO4 (5 μM)-induced LDL oxidation; > = maximal concentration used did not achieve 50% inhibition
Procedure: (§1) Stock solutions of 1 mM of purified lycopene or of 10 mg/ml of tomato's oleoresin, were prepared in Tetrahydrofuran (THF, HPLC grade). All procedures were performed in dim light. LDL was incubated with the respective concentrations of tomato's oleoresin or with 3 μM of lycopene (3 μl/ml THF, derived from a stock solution of 1 mM) for 30 minutes at 37° C. in the dark. LDL incubated with THF alone served as control.
(§2) Oxidation of LDL was carried out in a shaking water bath at 37° C. under air, in plastic tubes (1 cm in diameter). For metal ions dependent oxidation LDL was incubated for 4 hours at 37° C. with freshly prepared CuSO4 (5 μM).
(§3) LDL oxidation was determined by measuring the amount of thiobarbituric acid reactive substances (TBARS) (See: Buege J. A. and Aust S. D. Microsomal lipid peroxidation. Methods Enzymol. 1978; 52: 302-310) and by lipid peroxides formation using a commercially available kit.
(§4) LDL (100 μg of protein/ml) was preincubated for 30 min at 37° C. with either vitamin E or lycopene in various forms. LDL oxidation was induced by the addition of 5 μM of CuSO4 and was […] for 30 min at 37° C. LDL oxidaton was measured by the TBARS assay or by measuring the inhibition of the formation of lipid peroxides. Results are shown in FIG. 1 for vitamin E inhibition and FIG. 2 for crystalline lycopene. […]

LDL [2] = experiment: Copper ions-induced LDL oxidation, Colby equation data, readout not marked (TBARS / lipid peroxides)
Procedure: as §1, §2, §3, §4

LDL [3] = experiment: CuSO4-induced LDL oxidation measured by TBARS formation; conditions: CuSO4 (5 μM)-induced LDL oxidation; oleoresin concentration as lycopene; read-out: IC50 for the inhibition of TBARS formation
Procedure: as §1, §2, §3, §4

IC50 (LDL [1]) [µM]	IC50 (LDL [3]) [µM]	Molecule	B = Percent control of lycopene alone (LDL [2]; Experiment 1: 1 μM crystalline lycopene alone) [%]	A = Percent control of vitamin E alone (LDL [2]; 1 μM vitamin E alone) [%]
> 50	> 50	CC(C)=CCC/C(C)=C/C=C/C(C)=C/C=C/C(C)=C/C=C/C=C(C)/C=C/C=C(C)/C=C/C=C(\C)CCC=C(C)C [Crystalline lycopene, lycopene]	0	
6.5	6	Vitamin E		0
